Each structure is given as a SMILES string.

This is an account of results in US10273226B2, “Pyrazolyl-heteroarylamides as pesticides” (Bayer Animal Health GmbH, priority 2014, dated 2019).

Type in all cases: in vivo
For one assay, the system named is Phaedon cochleariae. Description: Phaedon cochleariae spray test. The conditions noted are these: application rate 100 g/ha; larvae; after 7 days. The gist of the method:
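Chinese cabbage leaf discs were sprayed with the compound formulated in water containing 1000 ppm emulsifier. After drying, they were infested with mustard beetle larvae. Efficacy was scored as % larvae killed after 7 days (100% = all dead, 0% = none).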

The next assay deals with Lucilia cuprina. As to the kind of experiment: Lucilia cuprina test. The following applies: application rate 100 ppm; L1 larvae; after 2 days. The method in brief: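 About 20 L1 larvae placed in vessels with minced horsemeat treated with compound (DMSO concentrate diluted in water) at the desired concentration. Kill (%) scored after 2 days; 100% means all larvae dead, 0% none.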

A further assay has as its system Ctenocephalides felis. Description: Ctenocephalides felis in vitro contact test with adult cat fleas. The conditions noted are these: application rate 5 μg/cm^2 (500 g/ha); after 48 h; fleas dead or moribund. The gist of the method:
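Test tubes were coated with 250 μl acetone solution of compound, giving 5 μg/cm^2 at 900 ppm, then dried and stocked with 5-10 adult cat fleas. After 48 h at room temperature and ambient humidity, dead or moribund fleas were counted; efficacy given as % (100% = all dead or moribund).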

For assay [1], the system named is Anopheles gambiae strain RSPH (homozygot kdr). As to the kind of experiment: Anopheles test (ANPHGB surface treatment). The following applies: application rate 100 mg/m^2, exposure 30 minutes, 24 hours after contact, read-out: efficacy (mortality in %). How it is done: Anopheles Test (ANPHGB Surface Treatment)
(§1) Solvent: acetone+2000 ppm rapeseed oil methyl ester (RME)
To produce an appropriate active ingredient formulation, the active ingredient is dissolved in the solvent (2 mg/ml). The active ingredient formulation is pipetted onto a glazed tile and, after it has dried off, adult mosquitoes of the species Anopheles gambiae strain RSPH (homozygot kdr) are placed onto the treated tile. The exposure time is 30 minutes.
(§2) 24 hours after contact with the treated surface, mortality in % is determined. 100% means that all the mosquitoes have been killed; 0% means that none of the mosquitoes have been killed.

Assay [2] deals with Anopheles funestus strain FUMOZ-R. As to the kind of experiment: Anopheles test (ANPHFU surface treatment). The conditions noted are these: 24 hours after contact, read-out: efficacy (mortality in %). How it is done:
Anopheles Test (ANPHFU Surface Treatment)
as §1
To produce an appropriate active ingredient formulation, the active ingredient is dissolved in the solvent (2 mg/ml). The active ingredient formulation is pipetted onto a glazed tile and, after it has dried off, adult mosquitoes of the species Anopheles funestus strain FUMOZ-R (Hunt et al., Med Vet Entomol. 2005 September; 19 (3):271-5) are placed onto the treated tile. The exposure time is 30 minutes.
as §2

The test system of another assay is Rhipicephalus sanguineus. Description: Rhipicephalus sanguineus in vitro contact test with adult brown dog ticks. The conditions noted are these: application rate 5 μg/cm^2 (500 g/ha); after 48 h; ticks dead or moribund. The gist of the method:
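Test tubes (25 ml) were coated by dissolving active ingredient in acetone p.a., diluting to the required concentration, and spreading 250 μl over the inner walls and base on an orbital shaker at 30 rpm for 2 h. Once dry, 5-10 adult Rhipicephalus sanguineus were added, and tubes were capped with perforated lids and kept horizontal in darkness at room temperature. At 48 h, ticks were knocked down and heated at 45-50° C. for up to 5 min. Those unable to climb away were counted dead or moribund, and efficacy ran from 0% to 100%.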

Another assay concerns Spodoptera frugiperda. As to the kind of experiment: Spodoptera frugiperda spray test. The following applies: application rate 100 g/ha; caterpillars; after 7 days. The gist of the method:
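Maize leaf discs were sprayed with compound formulated in solvent plus water containing 1000 ppm emulsifier, dried, then infested with Spodoptera frugiperda caterpillars. Efficacy in % mortality was scored after 7 days (100% all killed, 0% none).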

A further assay deals with Boophilus microplus. As to the kind of experiment: Boophilus microplus injection test. The following applies: application rate 20 μg/animal; injection into abdomen; assessed after 7 days. The gist of the method: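 Scoring was by fertile egg laying 7 days after injection, holding doubtful eggs until larvae hatched at about 42 days; 100% = no fertile eggs, 0% = all eggs fertile. Groups of 5 engorged adult female cattle ticks were each injected abdominally with 1 μl of compound in DMSO.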

The subject of assay [3] is Boophilus microplus Parkhurst strain, SP-resistant. Description: Boophilus microplus dip test. The conditions noted are these: application rate 100 ppm, assessed after 7 days. The gist of the method:
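Adult engorged females of SP-resistant Parkhurst strain (8–10 per tube) fully immersed in compound diluted in water from a DMSO solution. Ticks then kept on filter discs in a climate-controlled room; efficacy scored from fertile egg laying at 7 days, with unclear eggs held about 42 days until hatch (100% = no fertile eggs).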

The test system of a further assay is Musca domestica. As to the kind of experiment: Musca domestica test. The following applies: application rate 100 ppm; adult houseflies; after 2 days. The gist of the method:
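Compound dissolved in DMSO (10 mg per 0.5 ml) and diluted with water to the test concentration. Sponges soaked with sugar solution plus formulation were offered to 10 adult houseflies per vessel. Mortality (% kill, 100% = all dead, 0% = none) scored after 2 days.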

The mortality is the percentage killed. Turning to `Cn1nc(C(F)(F)C(F)(F)F)c(C(F)(F)F)c1-n1cc(-c2cccc(NC(=O)c3ccncc3)c2)cn1` [Example 1-001, N-{3-[2′-Methyl-5′-(pentafluoroethyl)-4′-(trifluoromethyl)-2′H-1,3′-bipyrazol-4-yl]-phenyl}isonicotinamide], the efficacy in the assay on Phaedon cochleariae, in the assay on Ctenocephalides felis, in the assay on Rhipicephalus sanguineus and with Spodoptera frugiperda was 100% throughout. Besides, the “efficacy (kill in %)” value with Lucilia cuprina and with Musca domestica was 100% in each case. The mortality at 100 mg/m2 fell in the range of 90 to 100% in [1] and 90 to 100% in assay [2] (application rate 100 mg/m^2, exposure 30 minutes). In addition, in [2] (application rate 20 mg/m^2, exposure 30 minutes), the mortality at 20 mg/m2 was in the range of 90 to 100%. For the same compound, the “efficacy (laying of fertile eggs)” value in the assay with Boophilus microplus is 100%; in [3], 95%.
